Where a name gives a salt, the structure may show the parent alone.

Assay [1] deals with T1, human H1 receptor (Homo sapiens, UniProt P35367).
T1 construct: purchased Euroscreen SA, Brussels, Belgium ES-390-M; host or cells: CHO-K1
As to the kind of experiment: Histamine H1 receptor binding, competition displacement of [3H]-pyrilamine. Conditions: displacement of 1 nM [3H]-pyrilamine, membranes of recombinant CHO-K1 cells expressing human H1 receptor, 1 hour at room temperature; for Ki: read-out: H1 pKi (converted). The procedure:
Histamine H1 receptor binding activity of compounds of the invention was assessed by competition displacement of 1 nM [3H]-pyrilamine (Amersham, Bucks, Product code TRK 608, specific activity 30 Ci/mmol) to 2 μg membranes prepared from recombinant CHO-K1 cells expressing the human H1 receptor (Euroscreen SA, Brussels, Belgium, product code ES-390-M) in assay buffer (50 mM Tris pH 7.4 containing 2 mM MgCl2, 250 mM sucrose and 100 mM NaCl) for 1 hour at room temperature.
The following compounds of the invention gave inhibition of [3H]pyrilamine binding: […]
On the technique in general: Displacement assays read how much labelled ligand stays bound in the presence of the test substance.

In assay [2] the target is T2, recombinant human CCR3 (Homo sapiens, UniProt P51677).
T2 construct: expressed in transfected cells; host or cells: CHO-K1
T2 sequence (P51677 1-355): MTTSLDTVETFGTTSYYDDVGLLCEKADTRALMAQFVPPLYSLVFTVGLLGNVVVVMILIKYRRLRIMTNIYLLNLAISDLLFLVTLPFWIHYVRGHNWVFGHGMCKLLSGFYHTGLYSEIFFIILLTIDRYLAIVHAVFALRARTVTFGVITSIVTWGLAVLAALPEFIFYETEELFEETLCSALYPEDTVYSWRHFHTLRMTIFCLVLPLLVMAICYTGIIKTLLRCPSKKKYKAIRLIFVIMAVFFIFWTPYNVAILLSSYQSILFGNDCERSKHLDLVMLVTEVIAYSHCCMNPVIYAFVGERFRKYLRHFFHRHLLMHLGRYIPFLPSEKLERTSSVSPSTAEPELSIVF
Briefly: Compound affinity at human recombinant CCR3 receptors, radioligand competition on CHO-K1 cell membranes. The format is binding. The note with it: competition with 2 nM [3H]-4-(2,4-dichloro-3-methylphenoxy)-1'-[4-(methylsulfonyl)benzoyl]-1,4'-bipiperidine, 2 h at 37° C., mean pKi by Cheng-Prussof correction of pIC50, minimum 2 experiments. The procedure: Determination of Compound Affinity at Human Recombinant CCR3 Receptors Assessed by Competition of [^3H]-4-(2,4-dichloro-3-methylphenoxy)-1′-[4-(methylsulfonyl)benzoyl]-1,4′-bipiperidine for CHO-K1 Cell Membranes In Vitro
Membranes, prepared from CHO-K1 cells stably expressing recombinant human CCR3, suspended in assay buffer (50 mM Tris-Base, pH 7.4; containing sodium chloride (100 mM) and magnesium chloride (2 mM)) were incubated in the presence of 2 nM [^3H]-4-(2,4-dichloro-3-methylphenoxy)-1′-[4-(methylsulfonyl)benzoyl]-1,4′-bipiperidine, along with vehicle (1% (v/v) DMSO), 4-(4-chloro-3-methylphenoxy)-1′-[2-(methylsulfonyl)benzoyl]-1,4′-bipiperidine (to define non-specific binding) or test compound for 2 h at 37° C. in round bottomed 96-well plates. The plates were then filtered onto GF/B filter plates, pre-soaked for 1 hour in plate-coating solution (0.3% (w/v) polyethylenimine, 0.2% (w/v) BSA in de-ionised water), using a 96-well plate Tomtec cell harvester. Four washes (250 μL) with wash buffer (50 mM Tris-Base, pH 7.4 containing sodium chloride (500 mM) and magnesium chloride (2 mM)) were performed at 4° C. to remove unbound radioactivity. […] The plates were sealed (TopSeal A) and filter-bound radioactivity was measured with a scintillation counter (TopCount, Packard BioScience) using a 1 minute counting protocol. […]

T1 sequence (P35367 whole entry): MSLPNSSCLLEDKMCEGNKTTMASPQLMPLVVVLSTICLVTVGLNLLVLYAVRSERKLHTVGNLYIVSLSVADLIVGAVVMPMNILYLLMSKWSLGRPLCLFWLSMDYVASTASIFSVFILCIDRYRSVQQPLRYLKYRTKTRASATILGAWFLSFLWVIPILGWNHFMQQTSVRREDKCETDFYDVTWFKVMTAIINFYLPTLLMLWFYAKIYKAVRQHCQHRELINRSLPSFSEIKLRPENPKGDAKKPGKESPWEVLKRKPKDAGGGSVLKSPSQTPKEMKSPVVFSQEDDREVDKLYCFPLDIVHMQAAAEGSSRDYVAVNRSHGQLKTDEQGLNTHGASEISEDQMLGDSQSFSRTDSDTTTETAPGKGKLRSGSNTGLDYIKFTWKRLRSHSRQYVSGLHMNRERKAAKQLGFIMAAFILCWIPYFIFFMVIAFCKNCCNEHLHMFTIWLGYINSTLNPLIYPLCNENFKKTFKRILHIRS

In the case of `O=C(O)C1(N2CCC(CN3CCC(Oc4ccc(Cl)c(Cl)c4)CC3)CC2)CCCCC1` [Example 6A, 1-(4-{[4-(3,4-dichlorophenoxy)piperidin-1-yl]methyl}piperidin-1-yl)cyclohexanecarboxylic acid], the Ki in assay [1] is 501 nM.

Turning to `Cc1c(OC2CCN(CC3CCN([C@@H](CC4CCCCC4)C(=O)O)CC3)CC2)ccc(Cl)c1Cl` [Example 2A, (2S)-3-Cyclohexyl-2-(4-{[4-(3,4-dichloro-2-methylphenoxy)piperidin-1-yl]methyl}piperidin-1-yl)propanoic acid], the Ki in assay [1] is 79.4 nM.

Consider `O=C(O)[C@H](CC1CCCC1)N1CCC(CN2CCC(Oc3ccc(Cl)c(Cl)c3)CC2)CC1` [Example 4A, (2S)-3-Cyclopentyl-2-(4-{[4-(3,4-dichlorophenoxy)piperidin-1-yl]methyl}piperidin-1-yl)propanoic acid], for which, in assay [1], the Ki is 126 nM.

Turning to `Cc1c(OC2CCN(CC3CCN(C4(C(=O)O)CCCC4)CC3)CC2)ccc(Cl)c1Cl` [Example 8A, 1-(4-{[4-(3,4-dichloro-2-methylphenoxy)piperidin-1-yl]methyl}piperidin-1-yl)cyclopentanecarboxylic acid], in assay [1], the Ki is 316 nM.

On to `Cc1cc(Cl)ccc1OC1CCN(CC2CCN([C@@](C)(CC(C)C)C(=O)O)CC2)CC1` [Example 16A, (2S)-2-{4-[4-(4-Chloro-2-methyl-phenoxy)-piperidin-1-ylmethyl]-piperidin-1-yl}-2,4-dimethyl-pentanoic acid], for which, in assay [2], the Ki was 0.631 nM.

With `Cc1c(OC2CCN(CC3CCN([C@@H](CC4CC4)C(=O)O)CC3)CC2)ccc(Cl)c1Cl` [Example 3A, (2S)-3-Cyclopropyl-2-(4-{[4-(3,4-dichloro-2-methylphenoxy)piperidin-1-yl]methyl}piperidin-1-yl)propanoic acid], in assay [1], the Ki was 200 nM.

Consider `Cc1cc(Cl)ccc1OC1CCN(CC2CCN(C3(C(=O)O)CCCCC3)CC2)CC1` [Example 13A, 1-(4-{[4-(4-Chloro-2-methylphenoxy)piperidin-1-yl]methyl}piperidin-1-yl)cyclohexanecarboxylic acid dihydrochloride], for which the Ki in assay [1] was 631 nM.

With “(2S)-3-cyclohexyl-2-(4-{[4-(3,4-dichloro-2-methylphenoxy)piperidin-1-yl]methyl}piperidin-1-yl)propanoic acid [Example 1A]”, the “H1 pKi” value in assay [1] came out at 7.2.

Source of the values: patent US20080275084A1, “Piperidines for the Treatment of Chemokine Mediated Diseases” (ASTRAZENECA AB, priority 2005, published 2008).
